{"source": "paper PMC12457078", "about": "“Inhibition of soluble epoxide hydrolase in endotoxin induced pig lung injury” (Frontiers in Pharmacology, 2025)", "assay": "pharmacokinetic pilot, continuous infusion in one animal", "type": "in vivo, pig", "experimental": "One animal served as a pharmacokinetic pilot, with arterial and venous catheters placed in a cut-down in the neck. The remaining 21 animals were used for the randomized study (Figure 1). After intubation and start of mechanical ventilation, a second auricular vein cannula was placed and infusion of either AEPU or placebo according to randomization was started. After 2 h of infusion of AEPU or placebo, an infusion of LPS was started. A bolus of 0.1 mg/kg was administered during 30 min after which the infusion rate was adjusted to 0.01 mg/kg/h. During the time between start of AEPU or placebo and LPS infusion, neck dissection was performed, exposing the v jugularis externa and carotid artery. A pulmonary artery introducer and an arterial cannula were placed in vein and artery respectively, and a pulmonary artery catheter introduced through the introducer and the tip placed in the correct position in the pulmonary artery placement guided by continuous invasive pressure monitoring or, when difficult, assisted by fluoroscopy. All surgical procedures were performed under sterile conditions.\nAEPU was synthesized according to Kim et al. ([Kim et al., 2007]), delivered in 60 mg vials and dissolved in 30 mL pure ethanol as a co-solvent, of which either 20 mL was added to 980 mL of sodium chloride 9 mg/mL or 8 mL–392 mL sodium chloride, creating a solution of 0.04 mg/mL AEPU and 2% ethanol. The placebo infusion was prepared by adding either 20 mL of pure ethanol to 980 mL of sodium chloride 9 mg/mL or 8 mL of pure ethanol to 392 mL sodium chloride, creating a 2% ethanol solution. Each animal received an infusion of either 0.1 mg/kg/h AEPU or the corresponding volume of placebo solution.\nInfusion of AEPU at 0.1 mg/kg/h produced a progressive rise in blood concentration reaching steady state of approximately 200 nM at 120 min, maintained with only minor variations until the termination of infusion at 255 min. The elimination of AEPU after termination of infusion was rapid, showing complete elimination within 15 min (Figure 2)."}
{"smiles": "CCOCCOCCOCCCCCNC(=O)NC12CC3CC(CC(C3)C1)C2", "note": "[Compound 950]", "values": [{"measurement": "time to complete elimination after termination of infusion", "setting": "infusion 0.1 mg/kg/h", "value": "≤ 15", "unit": "min"}, {"measurement": "concentration at 0 min", "setting": "pig, whole blood, intravenous, 0.1 mg/kg/h, time 0 minutes, read-out: Conc in blood 950", "value": 11, "unit": "ng/mL"}, {"measurement": "concentration at 5 min", "setting": "pig, whole blood, intravenous, 0.1 mg/kg/h, time 5 minutes, read-out: Conc in blood 950", "value": 45, "unit": "ng/mL"}, {"measurement": "concentration at 35 min", "setting": "pig, whole blood, intravenous, 0.1 mg/kg/h, time 35 minutes, read-out: Conc in blood 950", "value": 116, "unit": "ng/mL"}, {"measurement": "concentration at 65 min", "setting": "pig, whole blood, intravenous, 0.1 mg/kg/h, time 65 minutes, read-out: Conc in blood 950", "value": 174, "unit": "ng/mL"}, {"measurement": "concentration at 121 min", "setting": "pig, whole blood, intravenous, 0.1 mg/kg/h, time 121 minutes, read-out: Conc in blood 950", "value": 199, "unit": "ng/mL"}, {"measurement": "concentration at 185 min", "setting": "pig, whole blood, intravenous, 0.1 mg/kg/h, time 185 minutes, read-out: Conc in blood 950", "value": 202, "unit": "ng/mL"}, {"measurement": "concentration at 255 min", "setting": "pig, whole blood, intravenous, 0.1 mg/kg/h, time 255 minutes, read-out: Conc in blood 950", "value": 224, "unit": "ng/mL"}, {"measurement": "concentration at 270 min", "setting": "pig, whole blood, intravenous, 0.1 mg/kg/h, time 270 minutes, read-out: Conc in blood 950", "value": 0.189, "unit": "ng/mL"}, {"measurement": "concentration at 285 min", "setting": "pig, whole blood, intravenous, 0.1 mg/kg/h, time 285 minutes, read-out: Conc in blood 950", "value": 0.189, "unit": "ng/mL"}, {"measurement": "concentration at 300 min", "setting": "pig, whole blood, intravenous, 0.1 mg/kg/h, time 300 minutes, read-out: Conc in blood 950", "value": 0.189, "unit": "ng/mL"}, {"measurement": "concentration at 330 min", "setting": "pig, whole blood, intravenous, 0.1 mg/kg/h, time 330 minutes, read-out: Conc in blood 950", "value": 0.189, "unit": "ng/mL"}, {"measurement": "concentration at 120 min", "setting": "pig, whole blood, intravenous, infusion 0.1 mg/kg/h, reached at 120 min, read-out: steady state blood concentration", "value": "~200", "unit": "nM"}]}
